Patent US20150274719A1, “AMINO-SUBSTITUTED IMIDAZO[1,2-A]PYRIDINECARBOXAMIDES AND THEIR USE” (BAYER PHARMA AKTIENGESELLSCHAFT, priority 2012, published 2015)

Target: T1, recombinant guanylate cyclase reporter cell line (Rattus norvegicus, UniProt P19686+P20595)
T1 construct: expressed in transfected cells; host or cells: recombinant reporter cell line
T1 sequence (P19686 1-690): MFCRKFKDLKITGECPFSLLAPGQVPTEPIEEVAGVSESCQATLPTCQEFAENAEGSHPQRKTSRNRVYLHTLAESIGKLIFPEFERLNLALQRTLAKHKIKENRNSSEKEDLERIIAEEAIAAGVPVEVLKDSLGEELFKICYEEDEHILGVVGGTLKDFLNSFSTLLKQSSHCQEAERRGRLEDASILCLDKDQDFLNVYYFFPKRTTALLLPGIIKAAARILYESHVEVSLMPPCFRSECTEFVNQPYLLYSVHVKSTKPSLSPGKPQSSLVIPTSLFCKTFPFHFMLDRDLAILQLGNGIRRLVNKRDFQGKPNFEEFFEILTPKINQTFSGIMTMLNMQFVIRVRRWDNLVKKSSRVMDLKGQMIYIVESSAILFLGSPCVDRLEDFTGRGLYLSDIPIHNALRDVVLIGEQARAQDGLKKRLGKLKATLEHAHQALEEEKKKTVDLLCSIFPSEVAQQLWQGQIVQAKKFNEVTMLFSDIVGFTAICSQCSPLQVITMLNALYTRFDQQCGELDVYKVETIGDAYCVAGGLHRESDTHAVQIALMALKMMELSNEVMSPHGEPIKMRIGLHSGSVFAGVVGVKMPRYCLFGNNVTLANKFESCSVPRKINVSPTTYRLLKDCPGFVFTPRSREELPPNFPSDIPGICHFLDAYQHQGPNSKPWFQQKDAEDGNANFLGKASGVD
T1 sequence (P20595 1-619): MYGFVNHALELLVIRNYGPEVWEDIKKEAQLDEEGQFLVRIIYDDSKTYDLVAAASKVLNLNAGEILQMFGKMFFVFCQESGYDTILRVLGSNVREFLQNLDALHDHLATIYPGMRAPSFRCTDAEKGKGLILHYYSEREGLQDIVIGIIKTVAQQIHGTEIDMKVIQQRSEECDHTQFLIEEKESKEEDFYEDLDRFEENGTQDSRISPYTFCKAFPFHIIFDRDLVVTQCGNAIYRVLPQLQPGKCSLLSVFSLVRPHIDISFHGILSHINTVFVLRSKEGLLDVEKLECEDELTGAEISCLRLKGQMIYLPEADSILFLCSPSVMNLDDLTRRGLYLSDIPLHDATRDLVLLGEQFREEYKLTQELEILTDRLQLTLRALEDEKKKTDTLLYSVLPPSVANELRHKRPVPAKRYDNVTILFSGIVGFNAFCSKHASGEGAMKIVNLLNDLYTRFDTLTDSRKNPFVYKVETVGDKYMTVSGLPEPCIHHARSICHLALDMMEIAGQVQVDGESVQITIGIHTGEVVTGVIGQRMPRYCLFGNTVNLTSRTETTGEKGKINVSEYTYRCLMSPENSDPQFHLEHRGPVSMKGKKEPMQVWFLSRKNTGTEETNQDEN
Experiment: Action on recombinant guanylate cyclase reporter cell line
Assay type: cell-based
Conditions: in some cases mean values from individual determinations
How it was run: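 Each compound is applied to a cell line engineered with a reporter for recombinant guanylate cyclase. The minimal effective concentration is then noted, in part as a mean across separate determinations.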

MEC (minimal effective concentration) [µM] | Structure (SMILES)
1.00 | Cc1nc2c(OCc3c(F)cccc3F)cccn2c1C(=O)NCC(N)C(C)C (single isomer, unassigned) [Example 228, ent-N-(2-Amino-3-methylbutyl)-8-[(2,6-difluorobenzyl)oxy]-2-methylimidazo[1,2-a]pyridine-3-carboxamide]
1.00 | Cc1nc2c(OCc3c(F)cccc3F)cccn2c1C(=O)NCC(N)C(C)C (single isomer, unassigned) [Example 229, ent-N-(2-Amino-3-methylbutyl)-8-[(2,6-difluorobenzyl)oxy]-2-methylimidazo[1,2-a]pyridine-3-carboxamide]
0.30 | Cc1nc2c(OCc3c(F)cccc3F)cccn2c1C(=O)NCC(N)C(F)(F)C(F)F (single isomer, unassigned) [Example 231, ent-N-(2-Amino-3,3,4,4-tetrafluorobutyl)-8-[(2,6-difluorobenzyl)oxy]-2-methylimidazo[1,2-a]-pyridine-3-carboxamide]
0.10 | CCCC(C)(N)CNC(=O)c1c(C)nc2c(OCc3c(F)cccc3F)cc(C)cn12 (single isomer, unassigned) [Example 233, ent-N-(2-Amino-2-methylpentyl)-8-[(2,6-difluorobenzyl)oxy]-2,6-dimethylimidazo[1,2-a]pyridine-3-carboxamide]
0.03 | CCCC(C)(N)CNC(=O)c1c(C)nc2c(OCc3c(F)cccc3F)cc(C)cn12 (single isomer, unassigned) [Example 234, ent-N-(2-Amino-2-methylpentyl)-8-[(2,6-difluorobenzyl)oxy]-2,6-dimethylimidazo[1,2-a]pyridine-3-carboxamide]
0.30 | Cc1nc2c(OCc3c(F)cccc3F)cc(Cl)cn2c1C(=O)NCC(C)(N)C(F)(F)F (single isomer, unassigned) [Example 237, ent-N-(2-Amino-3,3,3-trifluoro-2-methylpropyl)-6-chloro-8-[(2,6-difluorobenzyl)oxy]-2-methyl-imidazo[1,2-a]pyridine-3-carboxamide]
1.00 | Cc1nc2c(OCc3c(F)cccc3F)cc(Cl)cn2c1C(=O)NCC(C)(N)C(F)(F)F (single isomer, unassigned) [Example 238, ent-N-(2-Amino-3,3,3-trifluoro-2-methylpropyl)-6-chloro-8-[(2,6-difluorobenzyl)oxy]-2-methyl-imidazo[1,2-a]pyridine-3-carboxamide]
0.30 | Cc1cc(OCc2c(F)cccc2F)c2nc(C)c(C(=O)NCC(C)(N)C(F)(F)F)n2c1 (single isomer, unassigned) [Example 240, ent-N-(2-Amino-3,3,3-trifluoro-2-methylpropyl)-8-[(2,6-difluorobenzyl)oxy]-2,6-dimethylimidazo-[1,2-a]pyridine-3-carboxamide]
0.30 | Cc1cc(OCc2c(F)cccc2F)c2nc(C)c(C(=O)NCC(C)(N)C(F)(F)F)n2c1 (single isomer, unassigned) [Example 241, ent-N-(2-Amino-3,3,3-trifluoro-2-methylpropyl)-8-[(2,6-difluorobenzyl)oxy]-2,6-dimethylimidazo-[1,2-a]pyridine-3-carboxamide]
0.30 | COCC(N)CNC(=O)c1c(C)nc2c(OCc3c(F)cccc3F)cc(C)cn12 (single isomer, unassigned) [Example 242, ent-N-(2-Amino-3-methoxypropyl)-8-[(2,6-difluorobenzyl)oxy]-2,6-dimethylimidazo[1,2-a]-pyridine-3-carboxamide]
1.00 | COCC(N)CNC(=O)c1c(C)nc2c(OCc3c(F)cccc3F)cc(C)cn12 (single isomer, unassigned) [Example 243, ent-N-(2-Amino-3-methoxypropyl)-8-[(2,6-difluorobenzyl)oxy]-2,6-dimethylimidazo[1,2-a]-pyridine-3-carboxamide]
